{"source": "paper PMC5218480", "about": "(PLoS ONE, 2017)", "system": "MV-4-11 cells", "experiment": "Gene expression microarray analysis (Affymetrix PrimeView) and GSEA", "format": "cell-based, human", "design": "RFU PODN (11730768_x_at) / Fold change /veh PODN (11730768_x_at) / RFU LINC00158 (11744669_a_at) / Fold change /veh LINC00158 (11744669_a_at) / RFU DUSP10 (11751237_a_at) / Fold change /veh DUSP10 (11751237_a_at) / RFU ID3 (11757404_x_at) / Fold change /veh ID3 (11757404_x_at) / RFU PLEKHG5 (11737974_s_at) / Fold change /veh PLEKHG5 (11737974_s_at) / RFU LRRC4B (11730491_at) / Fold change /veh LRRC4B (11730491_at) / RFU GIMAP4 (11747438_a_at) / Fold change /veh GIMAP4 (11747438_a_at) / RFU KRT8 (11758183_x_at) / Fold change /veh KRT8 (11758183_x_at) / RFU CNN1 (11734310_a_at) / Fold change /veh CNN1 (11734310_a_at) / RFU VPS37D (11726825_at) / Fold change /veh VPS37D (11726825_at) / RFU C10orf10 (11716522_x_at) / Fold change /veh C10orf10 (11716522_x_at) / RFU KIR2DL2 /// KIR2DL4 /// KIR2DL5A /// KIR2DL5B /// KIR2DS1 /// KIR2DS2 /// KIR2DS3 /// KIR2DS4 /// KIR3DL3 /// KIR3DL3 /// KIR3DS1 (11738374_at) / Fold change /veh KIR2DL2 /// KIR2DL4 /// KIR2DL5A /// KIR2DL5B /// KIR2DS1 /// KIR2DS2 /// KIR2DS3 /// KIR2DS4 /// KIR3DL3 /// KIR3DL3 /// KIR3DS1 (11738374_at) / RFU C1QL1 (11718748_at) / Fold change /veh C1QL1 (11718748_at) / RFU TMPRSS4 (11747572_a_at) / Fold change /veh TMPRSS4 (11747572_a_at) / RFU HAMP (11756126_x_at) / Fold change /veh HAMP (11756126_x_at) / RFU RNFT2 (11725882_a_at) / Fold change /veh RNFT2 (11725882_a_at) / RFU NR4A2 (11747474_a_at) / Fold change /veh NR4A2 (11747474_a_at) / RFU ABCC12 (11746883_a_at) / Fold change /veh ABCC12 (11746883_a_at) / RFU TMEM136 (11760407_x_at) / Fold change /veh TMEM136 (11760407_x_at) / RFU CLDN22 /// WWC2 (11732394_at) / Fold change /veh CLDN22 /// WWC2 (11732394_at) / RFU HLA-DPB1 (11760878_x_at) / Fold change /veh HLA-DPB1 (11760878_x_at) / RFU SPINT1 (11716480_a_at) / Fold change /veh SPINT1 (11716480_a_at) / RFU GAP43 (11754022_s_at) / Fold change /veh GAP43 (11754022_s_at) / RFU A4GNT (11735810_at) / Fold change /veh A4GNT (11735810_at) / RFU PRB3 (11715151_x_at) / Fold change /veh PRB3 (11715151_x_at) / RFU TUBB4B (11761932_at) / Fold change /veh TUBB4B (11761932_at) / RFU CAPN14 (11732068_a_at) / Fold change /veh CAPN14 (11732068_a_at) / RFU TMCC2 (11721928_a_at) / Fold change /veh TMCC2 (11721928_a_at) / RFU IRGQ (11745062_a_at) / Fold change /veh IRGQ (11745062_a_at) / RFU FAM174B (11720279_a_at) / Fold change /veh FAM174B (11720279_a_at) / RFU TMPRSS4 (11748680_a_at) / Fold change /veh TMPRSS4 (11748680_a_at) / RFU FAM212B (11763350_a_at) / Fold change /veh FAM212B (11763350_a_at) / RFU PLEKHG5 (11743358_a_at) / Fold change /veh PLEKHG5 (11743358_a_at) / RFU ZSCAN30 (11745921_a_at) / Fold change /veh ZSCAN30 (11745921_a_at) / RFU CMKLR1 (11741424_a_at) / Fold change /veh CMKLR1 (11741424_a_at) / RFU LOC101060620 /// MAPK8IP1 (11723275_at) / Fold change /veh LOC101060620 /// MAPK8IP1 (11723275_at) / RFU SPTSSB (11747773_x_at) / Fold change /veh SPTSSB (11747773_x_at) / RFU PRSS12 (11739890_at) / Fold change /veh PRSS12 (11739890_at) / RFU BIN1 (11741810_x_at) / Fold change /veh BIN1 (11741810_x_at) / RFU WNT11 (11732464_a_at) / Fold change /veh WNT11 (11732464_a_at) / RFU C10orf10 (11716521_a_at) / Fold change /veh C10orf10 (11716521_a_at) / RFU C5orf56 (11738089_at) / Fold change /veh C5orf56 (11738089_at) / RFU CYB561 (11721691_x_at) / Fold change /veh CYB561 (11721691_x_at) / RFU ANKRD19P (11752326_a_at) / Fold change /veh ANKRD19P (11752326_a_at) / RFU OR2T12 /// OR2T33 /// OR2T8 (11738714_s_at) / Fold change /veh OR2T12 /// OR2T33 /// OR2T8 (11738714_s_at) / RFU VCAN (11748164_a_at) / Fold change /veh VCAN (11748164_a_at) / RFU JSRP1 (11732532_at) / Fold change /veh JSRP1 (11732532_at) / RFU KRTAP10-11 (11738290_x_at) / Fold change /veh KRTAP10-11 (11738290_x_at) / RFU MYO3A (11730013_a_at) / Fold change /veh MYO3A (11730013_a_at) / RFU EBF3 (11725865_a_at) / Fold change /veh EBF3 (11725865_a_at) / RFU CAMK2N1 (11719241_x_at) / Fold change /veh CAMK2N1 (11719241_x_at) / RFU C5orf56 (11738088_a_at) / Fold change /veh C5orf56 (11738088_a_at) / RFU OLFML3 (11715873_a_at) / Fold change /veh OLFML3 (11715873_a_at) / RFU LOC100653217 /// NTM (11731650_a_at) / Fold change /veh LOC100653217 /// NTM (11731650_a_at) / RFU MAPK11 (11762145_a_at) / Fold change /veh MAPK11 (11762145_a_at) / RFU FIZ1 (11724087_x_at) / Fold change /veh FIZ1 (11724087_x_at) / RFU OASL (11726364_x_at) / Fold change /veh OASL (11726364_x_at) / RFU SOX15 (11748057_x_at) / Fold change /veh SOX15 (11748057_x_at) / RFU CD79A (11719716_a_at) / Fold change /veh CD79A (11719716_a_at) / RFU HIST1H1D (11736915_at) / Fold change /veh HIST1H1D (11736915_at) / RFU CASKIN2 (11723855_a_at) / Fold change /veh CASKIN2 (11723855_a_at) / RFU LOC730098 (11760151_x_at) / Fold change /veh LOC730098 (11760151_x_at) / RFU OR4N2 (11742367_at) / Fold change /veh OR4N2 (11742367_at) / RFU PRRT2 (11749266_a_at) / Fold change /veh PRRT2 (11749266_a_at) / RFU SNX32 (11753110_a_at) / Fold change /veh SNX32 (11753110_a_at) / RFU CDHR5 (11726645_a_at) / Fold change /veh CDHR5 (11726645_a_at) / RFU RCAN1 (11760418_a_at) / Fold change /veh RCAN1 (11760418_a_at) / RFU FAM167A (11723789_a_at) / Fold change /veh FAM167A (11723789_a_at) / RFU FAM26E (11764081_at) / Fold change /veh FAM26E (11764081_at) / RFU ISYNA1 (11749810_s_at) / Fold change /veh ISYNA1 (11749810_s_at) / RFU ACY1 (11761880_at) / Fold change /veh ACY1 (11761880_at) / RFU 11764098_at / Fold change /veh 11764098_at / RFU SAMD14 (11745864_x_at) / Fold change /veh SAMD14 (11745864_x_at) / RFU NPB (11741838_a_at) / Fold change /veh NPB (11741838_a_at) / RFU TMPRSS6 (11731388_a_at) / Fold change /veh TMPRSS6 (11731388_a_at) / RFU KRTAP10-2 (11738614_at) / Fold change /veh KRTAP10-2 (11738614_at) / RFU ARHGAP8 /// PRR5-ARHGAP8 (11727945_x_at) / Fold change /veh ARHGAP8 /// PRR5-ARHGAP8 (11727945_x_at) / RFU KRTAP5-7 /// NADSYN1 (11734609_at) / Fold change /veh KRTAP5-7 /// NADSYN1 (11734609_at) / RFU RASL12 (11751679_a_at) / Fold change /veh RASL12 (11751679_a_at) / RFU CDKN2B (11736163_a_at) / Fold change /veh CDKN2B (11736163_a_at) / RFU PRF1 (11729649_at) / Fold change /veh PRF1 (11729649_at) / RFU, ZNF638 /// ZNF638-IT1 / Fold change vs veh, ZNF638 /// ZNF638-IT1 / RFU, PANK3 / Fold change vs veh, PANK3 / RFU, SH3YL1 / Fold change vs veh, SH3YL1 / RFU, ZEB2 / Fold change vs veh, ZEB2 / RFU, NRIP1 / Fold change vs veh, NRIP1 / RFU, PTTG1IP / Fold change vs veh, PTTG1IP / RFU, CAPN2 / Fold change vs veh, CAPN2 / RFU, MED14 / Fold change vs veh, MED14 / RFU, SNORA58 / Fold change vs veh, SNORA58 / RFU, C1orf63 / Fold change vs veh, C1orf63 / RFU, LRRFIP1 / Fold change vs veh, LRRFIP1 / RFU, NDUFAF7 / Fold change vs veh, NDUFAF7 / RFU, SLC12A2 / Fold change vs veh, SLC12A2 / RFU, IBTK / Fold change vs veh, IBTK / RFU, ESF1 / Fold change vs veh, ESF1 / Fold change vs veh, TMEM50B / RFU, TAOK1 / Fold change vs veh, TAOK1 / RFU, ACBD3 / Fold change vs veh, ACBD3 / RFU, TMA16 / Fold change vs veh, TMA16 / RFU, RWDD3 / Fold change vs veh, RWDD3 / RFU, BCAT1 / Fold change vs veh, BCAT1 / RFU, EDEM3 / Fold change vs veh, EDEM3 / RFU, TMEM33 / Fold change vs veh, TMEM33 / RFU, WDR75 / Fold change vs veh, WDR75 / RFU, AHCTF1 / Fold change vs veh, AHCTF1 / RFU, TFRC / Fold change vs veh, TFRC / RFU, ZDHHC17 / Fold change vs veh, ZDHHC17 / RFU, NOM1 / Fold change vs veh, NOM1 / RFU, ARL8B / Fold change vs veh, ARL8B / RFU, ZBTB11 / Fold change vs veh, ZBTB11 / RFU, TAMM41 / Fold change vs veh, TAMM41 / RFU, KIAA1704 /// LOC100996395 / Fold change vs veh, KIAA1704 /// LOC100996395 / RFU, ING1 / Fold change vs veh, ING1 / RFU, TRMT61B / Fold change vs veh, TRMT61B / RFU, FUBP3 / Fold change vs veh, FUBP3 / RFU, TP53 / Fold change vs veh, TP53 / RFU, TNKS2 / Fold change vs veh, TNKS2 / RFU, ZFP14 / Fold change vs veh, ZFP14 / RFU, ACTR2 / Fold change vs veh, ACTR2 / RFU, PPP3R1 / Fold change vs veh, PPP3R1 / RFU, PIK3R1 / Fold change vs veh, PIK3R1 / RFU, HNRNPA1 / Fold change vs veh, HNRNPA1 / RFU, RNF170 / Fold change vs veh, RNF170 / RFU, ZNF28 / Fold change vs veh, ZNF28 / RFU, RNGTT / Fold change vs veh, RNGTT / RFU, OGT / Fold change vs veh, OGT / RFU, BRD1 / Fold change vs veh, BRD1 / RFU, MARS / Fold change vs veh, MARS / RFU, ZNF655 / Fold change vs veh, ZNF655 / RFU, FAHD1 / Fold change vs veh, FAHD1 / RFU, BDP1 / Fold change vs veh, BDP1 / RFU, LRRCC1 / Fold change vs veh, LRRCC1 / RFU, ARID1A / Fold change vs veh, ARID1A / RFU, ZNF146 / Fold change vs veh, ZNF146 / RFU, ZNF330 / Fold change vs veh, ZNF330 / RFU, GPN3 / Fold change vs veh, GPN3 / RFU, C9orf123 / Fold change vs veh, C9orf123 / RFU, N4BP2L2 / Fold change vs veh, N4BP2L2 / RFU, ARFIP1 / Fold change vs veh, ARFIP1 / RFU, FAM179B / Fold change vs veh, FAM179B / RFU, BCL10 / Fold change vs veh, BCL10 / RFU, UHRF1BP1L / Fold change vs veh, UHRF1BP1L / RFU, BET1 / Fold change vs veh, BET1 / RFU, CNOT2 / Fold change vs veh, CNOT2 / RFU, ZNF268 / Fold change vs veh, ZNF268 / Fold change vs veh, ZNF507 / RFU, DGCR2 / Fold change vs veh, DGCR2 / RFU, WDSUB1 / Fold change vs veh, WDSUB1 / Fold change vs veh, HSP90B1 /// MIR3652 / RFU, ADSS / Fold change vs veh, ADSS / RFU, GK / Fold change vs veh, GK / RFU, ZNF148 / Fold change vs veh, ZNF148 / RFU, TAF9 / Fold change vs veh, TAF9 / RFU, SLC1A5 / Fold change vs veh, SLC1A5 / RFU, SLMO2 / Fold change vs veh, SLMO2 / RFU, ABCC4 / Fold change vs veh, ABCC4 / RFU, LOC101060439 /// RAP1B / Fold change vs veh, LOC101060439 /// RAP1B / RFU, RFX7 / Fold change vs veh, RFX7 / RFU, GTPBP10 / Fold change vs veh, GTPBP10 / RFU, CNEP1R1 / Fold change vs veh, CNEP1R1 / RFU, BIVM-ERCC5 /// ERCC5 / Fold change vs veh, BIVM-ERCC5 /// ERCC5 / RFU, ILF3 / Fold change vs veh, ILF3 / RFU 11762660_at / Fold change /veh 11762660_at / RFU VCAN (11757783_s_at) / Fold change /veh VCAN (11757783_s_at) / RFU DDX43 (11728927_at) / Fold change /veh DDX43 (11728927_at) / RFU KRT8 (11758188_x_at) / Fold change /veh KRT8 (11758188_x_at) / RFU NKD1 (11759106_at) / Fold change /veh NKD1 (11759106_at) / RFU SRD5A1 (11742802_a_at) / Fold change /veh SRD5A1 (11742802_a_at) / RFU TPSAB1 /// TPSB2 (11721975_s_at) / Fold change /veh TPSAB1 /// TPSB2 (11721975_s_at) / RFU GSTM3 (11746129_a_at) / Fold change /veh GSTM3 (11746129_a_at) / RFU IL23R (11737362_x_at) / Fold change /veh IL23R (11737362_x_at) / RFU TMEM51 (11727254_a_at) / Fold change /veh TMEM51 (11727254_a_at) / RFU PIWIL2 (11732686_x_at) / Fold change /veh PIWIL2 (11732686_x_at) / RFU ORM1 (11744905_x_at) / Fold change /veh ORM1 (11744905_x_at) / RFU CCDC152 (11743942_at) / Fold change /veh CCDC152 (11743942_at) / RFU ECM1 (11717891_a_at) / Fold change /veh ECM1 (11717891_a_at) / RFU IL23R (11748794_a_at) / Fold change /veh IL23R (11748794_a_at) / RFU TNFAIP8L3 (11732012_x_at) / Fold change /veh TNFAIP8L3 (11732012_x_at) / RFU MBOAT4 (11741988_at) / Fold change /veh MBOAT4 (11741988_at) / RFU 11764193_at / Fold change /veh 11764193_at / RFU TMEM53 (11763286_at) / Fold change /veh TMEM53 (11763286_at) / RFU MAGEB2 (11727129_at) / Fold change /veh MAGEB2 (11727129_at) / RFU TMEM200A (11744735_a_at) / Fold change /veh TMEM200A (11744735_a_at) / RFU CCDC152 (11751479_a_at) / Fold change /veh CCDC152 (11751479_a_at) / RFU FAM211A (11726209_a_at) / Fold change /veh FAM211A (11726209_a_at) / RFU RGS16 (11746705_a_at) / Fold change /veh RGS16 (11746705_a_at) / RFU VCAN (11755009_s_at) / Fold change /veh VCAN (11755009_s_at) / RFU RHOB (11743442_s_at) / Fold change /veh RHOB (11743442_s_at) / RFU RGS16 (11720943_a_at) / Fold change /veh RGS16 (11720943_a_at) / RFU RGS16 (11720944_at) / Fold change /veh RGS16 (11720944_at) / RFU, VPS4B / Fold change vs veh, VPS4B / RFU, CREB1 / Fold change vs veh, CREB1 / RFU, DNAJC13 / Fold change vs veh, DNAJC13 / RFU, GNAQ / Fold change vs veh, GNAQ / RFU, CDK5R1 / Fold change vs veh, CDK5R1 / RFU, ZRANB3 / Fold change vs veh, ZRANB3 / RFU, CUL4A / Fold change vs veh, CUL4A / RFU, CCNY / Fold change vs veh, CCNY / RFU, UFL1 / Fold change vs veh, UFL1 / RFU, COG3 / Fold change vs veh, COG3 / RFU, DIAPH2 / Fold change vs veh, DIAPH2 / RFU, SKA2 / Fold change vs veh, SKA2 / RFU, AFF3 / Fold change vs veh, AFF3 / RFU, LMF1 / Fold change vs veh, LMF1 / RFU, IPO11 / Fold change vs veh, IPO11 / RFU, DFFB / Fold change vs veh, DFFB / RFU, FOXP1 / Fold change vs veh, FOXP1 / RFU, CARD8 / Fold change vs veh, CARD8 / RFU, STRN3 / Fold change vs veh, STRN3 / RFU, ADK / Fold change vs veh, ADK / RFU, RASSF2 / Fold change vs veh, RASSF2 / RFU, WIPF1 / Fold change vs veh, WIPF1 / RFU, LARP1B / Fold change vs veh, LARP1B / RFU, RASA1 / Fold change vs veh, RASA1 / RFU, RB1 / Fold change vs veh, RB1 / RFU, PPFIA1 / Fold change vs veh, PPFIA1 / RFU, MAT2A / Fold change vs veh, MAT2A / RFU, CCT5 / Fold change vs veh, CCT5 / RFU, WDR92 / Fold change vs veh, WDR92 / RFU, CUX1 / Fold change vs veh, CUX1 / RFU, TTC7A / Fold change vs veh, TTC7A / RFU, TMEM135 / Fold change vs veh, TMEM135 / RFU, DEPTOR / Fold change vs veh, DEPTOR / RFU, CPM / Fold change vs veh, CPM / RFU, DNAJB6 / Fold change vs veh, DNAJB6 / RFU, CACNA2D3 / Fold change vs veh, CACNA2D3 / RFU, DTX4 / Fold change vs veh, DTX4 / RFU, TFCP2 / Fold change vs veh, TFCP2 / RFU, GMCL1 /// GMCL1P1 / Fold change vs veh, GMCL1 /// GMCL1P1 / RFU, AEBP2 / Fold change vs veh, AEBP2 / RFU, SNHG1 /// SNORD22 /// SNORD25 /// SNORD26 /// SNORD27 /// SNORD28 /// SNORD29 /// SNORD31 / Fold change vs veh, SNHG1 /// SNORD22 /// SNORD25 /// SNORD26 /// SNORD27 /// SNORD28 /// SNORD29 /// SNORD31 / Fold change (Aza/veh), C12orf56 (ProbeSet 11735607_a_at) / Fold change (ACY-1035/veh), C12orf56 (ProbeSet 11735607_a_at) / Fold change (Aza/veh), FGFR1OP (ProbeSet 11751329_s_at) / Fold change (ACY-1035/veh), FGFR1OP (ProbeSet 11751329_s_at) / Fold change (Aza/veh), VPS36 (ProbeSet 11739960_a_at) / Fold change (ACY-1035/veh), VPS36 (ProbeSet 11739960_a_at) / RFU SYPL1 (11715823_x_at) / Fold change /veh SYPL1 (11715823_x_at) / RFU IGFBP7 (11715501_s_at) / Fold change /veh IGFBP7 (11715501_s_at) / RFU REEP3 (11722064_at) / Fold change /veh REEP3 (11722064_at) / RFU IGLL1 (11728026_x_at) / Fold change /veh IGLL1 (11728026_x_at): dose or concentration left out as unconfirmed", "details": "MV-4-11 cells, 48 hours"}
{"smiles": "Nc1ccc(-c2cccs2)cc1NC(=O)c1ccc2c(c1)cc(C1CC1)n2CCN1CCOCC1", "note": "[ACY-1035]", "values": [{"measurement": "Fold change /veh PLEKHG5 (11737974_s_at)", "value": 1.09}]}
